Data from patent US9434727B2, “Substituted 4-phenylpiperidines, their preparation and use” (THE TRUSTEES OF COLUMBIA UNIVERSITY IN THE CITY OF NEW YORK, priority 2014, dated 2016).

What was measured:
[1] = target: RBP4-TTR interaction (Homo sapiens (Human), UniProt P02753); assay: TR-FRET (HTRF) assay for retinol-induced RBP4-TTR interaction; format: biochemical; conditions: in the presence of 1 μM retinol; read-out: HTRF assay for antagonists of RBP4-TTR interaction: IC50
Text: TR-FRET assay for retinol-induced RBP4-TTR interaction Binding of a desired RBP4 antagonist displaces retinol and induces hindrance for RBP4-TTR interaction resulting in the decreased FRET signal (FIG. 7). Bacterially expressed MBP-RBP4 and untagged TTR were used in this assay. […] Following cell lysis, recombinant RBP4 was purified from the soluble fraction using the ACTA FPLC system (GE Healthcare) equipped with the 5-ml the MBP Trap HP column. Human untagged TTR was purchased from Calbiochem. Untagged TTR was labeled directly with Eu^3+ Cryptate-NHS using the HTRF Cryptate Labeling kit from CisBio following the manufacturer's recommendations. HTRF assay was performed in white low volume 384 well plates (Greiner-Bio) in a final assay volume of 16 μl per well. The reaction buffer contained 10 mM Tris-HCl pH 7.5, 1 mM DTT, 0.05% NP-40, 0.05% Prionex, 6% glycerol, and 400 mM KF. […] Titration of test compounds in this assay was conducted in the presence of 1 μM retinol. All reactions were assembled in the dark under dim red light and incubated overnight at +4° C. wrapped in aluminum foil. TR-FRET signal was measured in the SpectraMax M5e Multimode Plate Reader (Molecular Device). […] The TR-FRET signal was expressed as the ratio of fluorescence intensity: Flu665/Flu620×10,000.

[2] = target: RBP4 (Homo sapiens (Human), UniProt P02753); assay: Scintillation proximity (SPA) RBP4 binding assay; conditions: 10 nM 3H-Retinol, 50 nM biotinylated RBP4
Experimental: Scintillation Proximity RBP4 Binding Assay
Untagged human RBP4 purified from urine of tubular proteinuria patients was purchased from Fitzgerald Industries International. It was biotinylated using the EZ-Link Sulfo-NHS-LC-Biotinylation kit from Pierce following the manufacturer's recommendations. Binding experiments were performed in 96-well plates (OptiPlate, PerkinElmer) in a final assay volume of 100 μl per well in SPA buffer (IX PBS, pH 7.4, 1 mM EDTA, 0.1% BSA, 0.5% CHAPS). The reaction mix contained 10 nM ^3H-Retinol (48.7 Ci/mmol; PerkinElmer), 0.3 mg/well Streptavidin-PVT beads, 50 nM biotinylated RBP4 and a test compound. Nonspecific binding was determined in the presence of 20 μM of unlabeled retinol. The reaction mix was assembled in the dark under dim red light. The plates were sealed with clear tape (TopSeal-A: 96-well microplate, PerkinElmer), wrapped in the aluminum foil, and allowed to equilibrate 6 hours at room temperature followed by overnight incubation at +4° C. Radiocounts were measured using a TopCount NXT counter (Packard Instrument Company).

| Structure (SMILES) | IC50 [1] [nM] | IC50 [2] [nM] |
| --- | --- | --- |
| N#Cc1ccc2nnc(C(=O)N3CCC(c4cccc(Cl)c4C(F)(F)F)CC3)n2c1 [Compound 162, 3-(4-(3-Chloro-2-(trifluoromethyl)phenyl)piperidine-1-carbonyl)-[1,2,4]triazolo[4,3-a]pyridine-6-carbonitrile] | 10.7 | 4.82 |
| O=C(c1n[nH]c2c1CN(C1COC1)CC2)N1CCC(c2ccc(F)c(F)c2C(F)(F)F)CC1 [Compound 89, (4-(3,4-difluoro-2-(trifluoromethyl)phenyl)piperidin-1-yl)(5-(oxetan-3-yl)-4,5,6,7-tetrahydro-1H-pyrazolo[4,3-c]pyridin-3-yl)methanone] | 33 | 8.84 |
| CC(C)(C)CN1CCc2[nH]nc(C(=O)N3CCC(c4ccc(F)c(F)c4C(F)(F)F)CC3)c2C1 [Compound 90, (4-(3,4-difluoro-2-(trifluoromethyl)phenyl)piperidin-1-yl)(5-neopentyl-4,5,6,7-tetrahydro-1H-pyrazolo[4,3-c]pyridin-3-yl)methanone methanone] | 42.9 | 14.4 |
| COC(=O)N1CCc2[nH]nc(C(=O)N3CCC(c4cc(F)cc(F)c4C(F)(F)F)CC3)c2C1 [Compound 138, Methyl 3-(4-(3,5-difluoro-2-(trifluoro-methyl)phenyl)piperidine-1-carbonyl)-6,7-dihydro-1H-pyrazolo[4,3-c]pyridine-5(4H)-carboxylate] | 24.4 | 10.1 |
| CNC(=O)N1CCc2[nH]nc(C(=O)N3CCC(c4cccc(F)c4C(F)(F)F)CC3)c2C1 [Compound 114, 3-(4-(3-Fluoro-2-(trifluoromethyl)phenyl)piperidine-1-carbonyl)-N-methyl-6,7-dihydro-1H-pyrazolo[4,3-c]pyridine-5(4)-carboxamide] | 40.8 | 10.3 |
| COCCN1CCc2[nH]nc(C(=O)N3CCC(c4ccc(F)c(F)c4C(F)(F)F)CC3)c2C1 [Compound 94, (4-(3,4-difluoro-2-(trifluoromethyl)phenyl)piperidin-1-yl)(5-(2-methoxyethyl)-4,5,6,7-tetrahydro-1H-pyrazolo[4,3-c]pyridin-3-yl)methanone] | 49.9 | 6.96 |
| N#CN1Cc2[nH]nc(C(=O)N3CCC(c4ccc(F)c(F)c4C(F)(F)F)CC3)c2C1 [Compound 110, 3-(4-(3,4-difluoro-2-(trifluoromethyl)phenyl)piperidine-1-carbonyl)-4,6-dihydropyrrolo[3,4-c]pyrazole-5(1H)-carbonitrile] | 15.4 | 15.6 |
| O=C(c1n[nH]c2c1CCN(CC1CC1)C2)N1CCC(c2ccc(F)c(F)c2C(F)(F)F)CC1 [Compound 118, (6-(Cyclopropylmethyl)-4,5,6,7-tetrahydro-1Hpyrazolo[3,4-c]pyridin-3-yl)(4-(3,4-difluoro-2-(trifluoromethyl)phenyl)piperidin-1-yl)methanone] | 14.2 | 9.39 |
| CC(=O)N1CCc2c(C(=O)N3CCC(c4cc(F)ccc4C(F)(F)F)CC3)n[nH]c2C1 [Compound 140, 1-(3-(4-(5-fluoro-2-(trifluoromethyl)phenyl)piperidine-1-carbonyl)-4,5-dihydro-1H-pyrazolo[3,4-c]pyridin-6(7H)-yl)ethanone] | 21.9 | 9.28 |
| CC(=O)N1CCc2c(C(=O)N3CCC(c4c(F)cccc4C(F)(F)F)CC3)n[nH]c2C1 [Compound 156, 1-(3-(4-(2-fluoro-6-(trifluoromethyl)phenyl)piperidine-1-carbonyl)-4,5-dihydro-1H-pyrazolo[3,4-c]pyridin-6 (7H)-yl) ethanone] | 248 | 19.4 |
| CC(=O)N1CCc2c(C(=O)N3CCC(c4cc(C(F)(F)F)cc(C(F)(F)F)c4)CC3)n[nH]c2C1 [Compound 153, 1-(3-(4-(3,5-bis(trifluoromethyl)phenyl)piperidine-1-carbonyl)-4,5-dihydro-1H-pyrazolo[3,4-c]pyridin-6(7H)-yl)ethanone] | 833 | 149 |
